Series [1] concerns MDA-MB-231 breast cancer cells. The series can be described thus: MTT cytotoxic activity assay on MDA-MB-231 breast cancer cells. The note with it: for IC50: MDA-MB-231, MTT, 24 h incubation, read-out: IC50 (Mean ± SEM). It counts as cell-based, human. On the procedure:
(§1) Cytotoxic activity was performed according to the previously described methods. Breast cancer cell lines MDA-MB-231 were maintained in Dulbecco’s modified eagle medium (DMEM, Invitrogen, Carlsbad, CA, USA). The media was supplemented with 10% fetal bovine serum (FBS) and 1% antimycotic antibiotic (Invitrogen, Carlsbad, CA, USA). Cells were cultured in a 5% CO2-humidified atmosphere at 37 °C. Stock solution (5 mg/mL) of 3-(4,5-dimethylthiazol-2-yl)-2,5-diphenyltetrazolium bromide (MTT, Merck, Darmstadt, Hesse, Germany) was prepared in phosphate-buffered saline (PBS).
(§2) Cells were seeded at a density of 1 × 10^4 cells per well in 96-well microtiter culture plates. After overnight incubation, normal growth medium was removed and replaced with either fresh medium (untreated control) or different concentrations of respective compounds in growth medium diluted from a 2 mM stock. After 24 h of incubation, MTT solution was added to each well (0.1 mg/mL in DMEM) and incubated further for 4 h at 37 °C. Upon termination, the supernatant was aspirated and the MTT formazan, formed by metabolically viable cells, was dissolved in a solubilization solution containing DMSO (100 սL) by mixing for 5 min on a gyratory shaker. The absorbance was measured at 540 nm (reference wavelength 690 nm) on an Ultra Multifunctional Microplate Reader (Bio-Rad, Hercules, California, USA). Absorbance of control (without treatment) was considered as 100% cell survival. Each treatment had three replicate wells [56]. The IC50 values of the active compounds were calculated using nonlinear regression through GraphPad Prism 4 software (La Jolla, CA, USA).

Assay in series [2]: as above
The conditions noted are these: human, MDA-MB-231 breast cancer cells; for viability at 24 h, 25 µM / viability at 24 h, 75 µM: read-out: cell viability; for viability at 24 h, 75 µM: MDA-MB-231, 75 µM. It counts as cell-based, human. On the procedure: as §1, §2

Series [3] is described as follows: DPPH radical scavenging (antioxidant) assay. The conditions noted are these: for IC50: isolated compounds. How it is done:
Free radical scavenging activity of the test fractions/compounds was determined by measuring the change in absorbance of DPPH (l, l-Diphenyl-2-picrylhydrazyl radical, Sigma-Aldrich, St Louis, MO, USA) at 515 nm by the microplate reader (SpectraMax M2, Molecular Devices, CA, USA) as previously described. […] The IC50 values of the tested compounds were calculated using nonlinear regression through GraphPad Prism 4 software (La Jolla, CA, USA).

Series [4] has as its target T1, bovine erythrocyte CA-II (Bos taurus, UniProt P00921).
T1 construct: purified bovine erythrocyte CA-II; purchased Sigma-Aldrich; host or cells: bovine erythrocytes (natural source)
The series is described as follows: Carbonic anhydrase II inhibition (4-nitrophenyl acetate). Format: biochemical. Also noted: % Inhibition: concentration or dose not given beside the values. The conditions noted are these: CA-II in vitro; for IC50: read-out: IC50 (µM) ± (SEM). How it is done: The total reaction volume of 200 µL included 20 µL of test compounds prepared in DMSO, followed by the addition of 140 µL of the HEPES–tris buffer, 20 µL of purified bovine erythrocyte CA-II (0.1 mg/mL) prepared in buffer, and 20 µL of a solution of 4-nitrophenyl acetate. A 20 µL amount of test compound was incubated with the enzyme (EC 4.2.1.1, Sigma-Aldrich, St. Louis, MO, USA) for 15 min in a 96-well flat-bottom plate. The rate of product formation was monitored with the addition of 20 µL of 4-NPA as substrate, prepared in methanol at the final concentration of 0.7 mM, at 25 °C for 30 min with regular intervals of 1 min, by using microplate readers (Bio-Rad, Molecular Devices, CA, USA). HEPES-tris was used as a buffer for the reaction at the final concentration of 20 mM at pH 7.4. The percent inhibition was calculated by using the following formula:% Inhibition = 100 − (OD test well/OD control) × 100

The conditions of series [5]: reported earlier by the group; cited from earlier work.

Where two headings read alike, the source gives them in different places.

T1 sequence (P00921 whole entry): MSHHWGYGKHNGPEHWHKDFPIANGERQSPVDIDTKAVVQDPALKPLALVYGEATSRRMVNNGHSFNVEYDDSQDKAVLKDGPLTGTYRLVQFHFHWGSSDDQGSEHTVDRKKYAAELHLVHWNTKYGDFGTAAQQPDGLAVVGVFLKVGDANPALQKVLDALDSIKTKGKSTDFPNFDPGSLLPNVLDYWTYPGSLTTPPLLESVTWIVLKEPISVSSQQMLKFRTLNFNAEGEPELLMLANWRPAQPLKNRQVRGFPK

One may read the IC50 as the concentration at which inhibition is half-maximal. Broadly, the viability is a read-out of living cells in per cent, often relative to untreated cells. For the molecule `C=C1C(=O)OC2C1CCC(O)C1(C)CCC(C)(O)C21` (stereo not shown) [Compound 3, lyciumate], in series [1] (Homo sapiens, MDA-MB-231, 24 h), the IC50 came to 49.4 ± 3.73 µM. Further, the viability at 24 h, 25 µM in series [2] (MDA-MB-231, 25 µM) was in the range of 81 to 89%.
In the case of `O=C1O[C@H]([C@@H](O)CO)C(O)=C1O` [Ascorbic acid, reference compound], in series [3] (concentration = 1 mg/mL), the “Antioxidant % Inhibition” value amounted to 90%. In addition, the “Antioxidant IC50 ± SEM” value in series [3] (fractions and standard) stood at 53 ± 1.32 µg/mL.
What is called % Inhibition is the percentage by which the read-out fell short of the control. In the case of `C=C1CC[C@H]2C(=C)CC[C@H]3C(=C)C(=O)O[C@@H]3[C@@H]12` [Compound 1, dehydrocostus lactone], in series [4], the “% Inhibition” value stood at 33% and the “IC50 (µM) ± (SEM)” value is “inactive”. Further, the “antioxidant activity (in words)” value in series [3] is on record as “moderate activity”. For the same molecule, in series [1] (Homo sapiens, MDA-MB-231, 24 h), the IC50 is 35.4 ± 2.56 µM. Besides, in series [1] (Homo sapiens, MDA-MB-231, 100 µM, read-out: inhibition of cell proliferation), the inhibition at 100 µM was determined as 92.1%. Also, the viability at 24 h, 25 µM in series [2] (MDA-MB-231, 25 µM) is 76%.
As to `Cc1cc(O)c2c(c1)C(=O)c1cc(O)cc(O)c1C2=O` [Compound 6, emodin], the “% Inhibition (1 mM)” value in series [3] came to 71%. The IC50 is 645 ± 1.5 µM in series [3]; 73 µM in series [1] (Homo sapiens, MDA-MB-231, 24 h); 73.5 ± 5.89 µM in series [1].
In the case of `C[C@@H]1C[C@@H](O)Cc2cc(O)cc(O)c21` [Compound 14, feroxidin], in series [3], the “% Inhibition (1 mM)” value is recorded as 80% and inhibition was half-maximal at 241 ± 1.5 µM (IC50).
For the molecule `COc1cccc2c1C(=O)c1c(O)c3c(c(O)c1C2=O)C[C@@](O)(C(=O)CO)C[C@@H]3O[C@H]1C[C@H](N)[C@H](O)[C@H](C)O1` [Doxorubicin, reference compound], in series [1] (Homo sapiens, MDA-MB-231, 24 h), the concentration for half-maximal inhibition (IC50) amounted to 3.31 ± 0.19 µM.
On to `C=C1C(=O)O[C@@H]2/C=C(\C)CC/C=C(\C)CC[C@@H]12` [Compound 2, costunolide], for which, in series [4], the “% Inhibition” value came to 84.7% and the IC50 came to 24.4 µM. Besides, the IC50 in series [1] (Homo sapiens, MDA-MB-231, 24 h) was 42.1 ± 2.98 µM. Besides, the viability at 24 h, 25 µM in series [2] (MDA-MB-231, 25 µM) lay in the range of 81 to 89%.
For `O=C(/C=C/c1ccccc1)O[C@@H]1O[C@H](CO)[C@@H](O)[C@H](O)[C@H]1OC(=O)c1cc(O)c(O)c(O)c1` [Compound 9, lyciumaside], the “antioxidant IC50” value in series [5] is 30 µg/mL. For the same molecule, the IC50 is 76 µM in series [1] (Homo sapiens, MDA-MB-231, 24 h) and 76.9 ± 7.04 µM in series [1]. For the same molecule, in series [1] (MDA-MB-231, 25 µM), the “cytotoxic effect / cell growth inhibition” value was “did not inhibit cell growth significantly”. The “loss of cell viability” value in series [1] (MDA-MB-231, 100 µM) is given as “approximately 70%”. In addition, in series [1] (MDA-MB-231, concentrations above 50 µM), the cell growth inhibition entry is “above 50%”. Besides, in series [2] (MDA-MB-231, 25 µM), the viability at 24 h, 25 µM was 81 to 89%.
For `Oc1cc(O)c2c(c1)O[C@H](c1ccc(O)c(O)c1)[C@@H](O)C2` [Compound 4, catechin], the “% Inhibition (1 mM)” value in series [3] is listed as 78%. For the same molecule, the IC50 in series [3] was found to be 55 ± 2 µM; in series [1] (Homo sapiens, MDA-MB-231, 24 h) it was 101 ± 7.09 µM.
For the molecule `CC1OC(OCc2cc(O)c3c(c2)C(=O)c2cccc(O)c2C3=O)C(O)C(O)C1O` (stereo not shown) [Compound 8, aloe emodine 11-O-rhamnoside], the half-inhibitory concentration (IC50) in series [1] (Homo sapiens, MDA-MB-231, 24 h) was 72 µM; in series [1], 72.2 ± 6.29 µM. For the same molecule, the viability at 24 h, 25 µM in series [2] (MDA-MB-231, 25 µM) lay in the range of 81 to 89%.
`COc1cc(=O)oc2cc(O)cc(C)c12` [Compound 12, 7-demethylsiderin]: in series [4], the “% Inhibition” value came out at 91.2% and the 50% inhibitory concentration (IC50) came to 23.3 ± 1.63 µM. In addition, the concentration for half-maximal inhibition (IC50) in series [1] (Homo sapiens, MDA-MB-231, 24 h) came to 60.1 ± 4.82 µM. Further, in series [2] (MDA-MB-231, 25 µM, read-out: cytotoxic effect / cell growth inhibition), the inhibition at 24 h, 25 µM is ~14%. The viability at 24 h, 75 µM in series [2] was 44%.
Regarding `C[C@@H]1O[C@@H](OCc2cc(O)c3c(c2)[C@H]([C@@H]2O[C@H](CO)[C@@H](O)[C@H](O)[C@H]2O)c2cccc(O)c2C3=O)[C@H](O)[C@H](O)[C@H]1O` [Compound 11, aloinoside B], in series [1] (Homo sapiens, MDA-MB-231, 24 h), the IC50 was 140 ± 13.1 µM. In addition, in series [1] (MDA-MB-231, 25 µM), the “cytotoxic effect / cell growth inhibition” value is reported as “no cell growth inhibition”. Also, the viability at 24 h, 75 µM in series [2] came out at 64%.
For the molecule `O=C1c2cccc(O)c2C(=O)c2c(O)cc(CO)cc21` [Compound 5, aloe emodin], the “% Inhibition” value in series [4] is given as 86.3%. Further, the IC50 is 14.4 ± 1.14 µM in series [4]; ~31 µM in series [1] (Homo sapiens, MDA-MB-231, 24 h); 31.4 ± 2.44 µM in series [1]. Further, the “loss of cell viability” value in series [1] (MDA-MB-231, 25 µM) is on record as 50.53%.
With `O=C1c2c(O)cccc2[C@](O)([C@@H]2O[C@H](CO)[C@@H](O)[C@H](O)[C@H]2O)c2cc(CO)cc(O)c21` [Compound 10, 10-hydroxy aloin A], in series [1] (Homo sapiens, MDA-MB-231, 24 h), the IC50 was determined as 143 ± 12.7 µM. In series [1] (MDA-MB-231, 25 µM), the “cytotoxic effect / cell growth inhibition” value was “growth-promoting effect”. Moreover, the viability at 24 h, 75 µM in series [2] is 77%.
Turning to `CC(=O)Cc1cc(=O)c2c(C)cc(O)c(C3OC(COC(=O)C=Cc4ccc(O)cc4)C(O)C(O)C3O)c2o1` (stereo not shown) [Compound 13, 6′-O-coumaroylaloesin], in series [3], the “% Inhibition (1 mM)” value came out at 73% and the IC50 came out at 762 ± 2 µM.

(Values after article PMC7281707, “Antiproliferative and Carbonic Anhydrase II Inhibitory Potential of Chemical Constituents from Lycium shawii and Aloe vera: Evidence from In Silico Target Fishing and In Vitro Testing” (Pharmaceuticals, 2020).)
